Source: US20240271138A1, “METHODS AND COMPOSITIONS FOR MODULATING STING SIGNALING AND INNATE IMMUNE RESPONSES” (The Broad Institute, Inc., priority 2021, published 2024)

Assays:
STING ubiquitination = test: FLAG-ubiquitin immunoprecipitation of STING in 293T STING-HA / FLAG-ubiquitin cells; type: cell-based, human; details: 2′3′-cGAMP, 2 hours; 0.5 μM MLN7243; FIG. 12A
Procedure: 293T cells were transduced with pTRIP-hPGK-Blast-2A-STING-HA and pTRIP-hPGK-Hygro-2A-FLAG-Ubiquitin and selected with […] Blasticidin (Invivogen) and 320 μg/mL Hygromycin (Invivogen) for one week. 1 million cells/well were plated in a 6 well plate the day prior to the stimulation. Cells were then stimulated with 300 μL cGAMP permeabilization buffer containing 1 μg/mL cGAMP for 10 minutes, washed with 3 mL of warm medium, and the medium was replaced. 3 wells per condition were harvested 2 hours post stimulation, washed with PBS and lysed with 550 μL of RIPA buffer for 10 minutes on ice. Lysates were cleared at 16000 g for 10 minutes at 4° C. 10% of the lysate was saved as input. The remaining lysates were incubated with 150 μL Pierce Anti-[…] Magnetic beads (Thermo Fisher) O/N at 4° C. with constant rotation. Beads were washed 3 times with a buffer containing 10 mM Tris-HCl pH7.5 (Thermo Fisher), 2 mM EDTA (Thermo Fisher), 1% Nonidet-P40 Substitute (Roche) and 50 mM NaCl (Thermo Fisher), and 2 times with RIPA buffer. Proteins were eluted by adding 150 μL of non-reducing Laemmli (Boston bioproducts) containing 20 mM DTT (Thermo Fisher) and boiled for 20 minutes. Input was diluted with 2× sample buffer (Sigma).
MLN7243 was added again after medium replacement. Cells were stimulated for the indicated times.

CD14+ monocytes = test: Immunoblot of phospho-STING in CD14+ monocytes from healthy donors; type: cell-based, human; details: 5 μg/mL 2′3′-cGAMP, 6 hours, MLN7243, FIG. 12K
Source text: FIGS. 12A-12O show involvement of ESCRT components in ubiquitination and degradation of STING. […] One representative blot of n=2 independent experiments. […] One representative plot of n=3 technical replicates. […] Each dot represents one technical replicate. Paired t-test, *** p<0.001. […] One representative plot of n=3 independent experiments with n=2 technical replicates per experiment. […] Each dot represents an individual replicate. One-way ANOVA with Dunnet's multiple comparisons. **** p<0.0001, *** p<0.001. […] FIGS. 12G-12J show immunofluorescence in 293T stably expressing STING-HA after stimulation with cGAMP for 2 hours. […] Dashed boxes represent the cropped regions shown in the right panels. One representative field of n≥5 fields in n=2 independent experiments. Scale bar is 10 μm. […] One representative blot of n=3 independent donors in n=2 independent experiments. […] One representative experiment of n=3 independent experiments with n=2 technical replicates. […] Friedman test with Dunn's multiple comparison test. **** p<0.0001, ** p<0.01, ns: not significant.
CD14+ monocytes were isolated from peripheral adult human blood as previously described 1. […]
Samples for pull-downs or immunoprecipitations were treated as described in the corresponding paragraphs. […] ECL signal was recorded on a ChemiDoc Biorad Imager. Data was analyzed with ImageLab (Biorad).

STING-mNeonGreen = test: STING degradation in 293T STING-mNeonGreen reporter cell line by flow cytometry; details: 293T STING-mNG; 4 μg/mL 2′3′-cGAMP(pS)2; 0.5 μM MLN7243; FIGS. 5A-5B
Procedure: MLN7243 (Selleckchem) was used at 0.5 μM in all experiments. All cell lines were pre-treated for one hour before cGAMP stimulation. […] Cells were stimulated with 300 μL cGAMP permeabilization buffer containing 0.5 μg/mL 2′3′-cGAMP for 10 minutes, washed with 3 mL of medium, and medium was then replaced. MLN7243 was added again after medium replacement. Cells were stimulated for the indicated times.
Cells were then washed twice with Cytoperm and resuspended in FACS buffer for flow cytometry. Acquisition was performed on a Cytoflex S or Cytoflex LX (Beckman Coulter). Data was analyzed with FlowJo (BD).

`NS(=O)(=O)OC[C@H]1C[C@@H](Nc2ccnc3cc(-c4cccc(SC(F)(F)F)c4)nn23)[C@H](O)[C@@H]1O` [MLN7243] was tested, and the STING ubiquitination (STING ubiquitination) was “blocked STING ubiquitination”, the phospho-STING levels (CD14+ monocytes) was “strong increase in phospho-STING levels” and the “degradation of STING (% STING-mNG positive cells)” value (STING-mNeonGreen) was “complete block of degradation of STING”.
